Reference: patent US20200000772A1, “CENICRIVIROC COMBINATION THERAPY FOR THE TREATMENT OF FIBROSIS” (Tobira Therapeutics, Inc., priority 2014, published 2020)
Where a name gives a salt, the structure may show the parent alone.

Tests used:
[1] = tested on: adults with CCR5 tropic HIV-1; test: Study 202 post-hoc APRI and FIB-4 fibrosis index scores; assay type: in vivo, human
Method: APRI and FIB-4 scores were calculated. Change in score category from baseline (BL) to Weeks 24 and 48 was assessed in patients with non-missing data. Correlations between changes from BL in APRI and FIB-4 scores, and MCP-1 (CCR2 ligand) and sCD14 (inflammatory biomarker) levels were evaluated.

[2] = tested on: HIV-1 infected adult subjects; test: Study 202 biomarkers of inflammation; assay type: in vivo, human
Method: As an exploratory analysis, levels of inflammation biomarkers MCP-1, sCD14, high sensitivity C-reactive protein [hs-CRP], interleukin-6 [IL-6], D-dimer, and fibrinogen) were measured. Baseline values and changes from baseline at Week 24 and Week 48 of MCP-1, sCD14, hs-CRP, IL-6, D-dimer, and fibrinogen are summarized in Table 22.
The sCD14 samples were originally analyzed in 2 separate batches: Batch 1 included samples leading up to the Week 24 primary analysis and Batch 2 included Week 32 and Week 48 (end of study) samples. A repeat analysis of archived samples all analyzed in one batch was conducted for consistency in analysis across time points. To control for the effects of covariates, a linear mixed-model repeated-measures analysis was conducted on the changes from baseline in sCD14 (analysis dated September 2013).

[3] = Phase 1 CVC and pioglitazone co-administration PK and safety study; assay type: in vivo, healthy subjects; conditions: CVC 150 mg QD and PGZ 45 mg QD
Method: Plasma samples were collected prior to each dose and over 24 hours at the end of each treatment period. Cmax, Cmin, tmax, and AUC0-tau were determined using non-compartmental methods. Geometric means, GMRs and CIs were calculated.

[4] = Solubility of cenicriviroc mesylate; assay type: physicochemical
From the text: In one embodiment, the acid addition salt of cenicriviroc is cenicriviroc mesylate, e.g., (S)-8-[4-(2-Butoxyethoxy)phenyl]-1-isobutyl-N-(4-{[(1-propyl-1H-imidazol-5-yl)methyl]sulfinyl}phenyl)-1,2,3,4-tetrahydro-1-benzazocine-5-carboxamide monomethanesulfonoate. In one embodiment, the cenicriviroc mesylate is a crystalline material, such as a pale greenish-yellow crystalline powder.

Structure (SMILES): O=C1Nc2ccc(Cl)cc2[C@@](C#CC2CC2)(C(F)(F)F)O1 [EFV, efavirenz, reference compound]
- subjects with APRI 0.5-1.5 ([1]; Baseline): 4%
- subjects with APRI <0.5 ([1]; Baseline): 96%
- subjects with FIB-4 <1.45 ([1]; Baseline): 100%
- subjects with APRI <0.5 ([1]; Week 24): 100%
- subjects with APRI decreased 1 category from baseline ([1]; Week 24): 5%
- subjects with FIB-4 <1.45 ([1]; Week 24): 100%
- subjects with APRI <0.5 ([1]; Week 48): 100%
- subjects with APRI decreased 1 category from baseline ([1]; Week 48): 6%
- subjects with FIB-4 1.45-3.25 ([1]; Week 48): 6%
- subjects with FIB-4 <1.45 ([1]; Week 48): 94%
- plasma MCP-1 over time ([2]; CVC 100 mg and 200 mg, EFV, up to Week 48): remained at baseline values
- D-dimer Changes from baseline at Week 24, Mean ([2]; EFV 600 mg): -53 ng/mL
- D-dimer Changes from baseline at Week 24, Median ([2]; EFV 600 mg): -26 ng/mL
- D-dimer Changes from baseline at Week 48, Mean ([2]; EFV 600 mg): -34 ng/mL
- D-dimer Changes from baseline at Week 48, Median ([2]; EFV 600 mg): 0.0 ng/mL
- Fibrinogen Changes from baseline at Week 24, Mean ([2]; EFV 600 mg): -28 mg/dL
- Fibrinogen Changes from baseline at Week 24, Median ([2]; EFV 600 mg): -31 mg/dL
- Fibrinogen Changes from baseline at Week 48, Mean ([2]; EFV 600 mg): -30 mg/dL
- Fibrinogen Changes from baseline at Week 48, Median ([2]; EFV 600 mg): -22 mg/dL
- IL-6 Changes from baseline at Week 24, Mean ([2]; EFV 600 mg): -8.72 pg/mL
- IL-6 Changes from baseline at Week 24, Median ([2]; EFV 600 mg): 0.00 pg/mL
- IL-6 Changes from baseline at Week 48, Mean ([2]; EFV 600 mg): -13.11 pg/mL
- IL-6 Changes from baseline at Week 48, Median ([2]; EFV 600 mg): 0.00 pg/mL
- MCP-1 Changes from baseline at Week 24, Mean ([2]; EFV 600 mg): -44 pg/mL
- MCP-1 Changes from baseline at Week 24, Median ([2]; EFV 600 mg): -17 pg/mL
- MCP-1 Changes from baseline at Week 48, Mean ([2]; EFV 600 mg): 4.2 pg/mL
- MCP-1 Changes from baseline at Week 48, Median ([2]; EFV 600 mg): 33.6 pg/mL
- hs-CRP Changes from baseline at Week 24, Mean ([2]; EFV 600 mg): -0.46 mg/dL
- hs-CRP Changes from baseline at Week 24, Median ([2]; EFV 600 mg): -0.01 mg/dL
- hs-CRP Changes from baseline at Week 48, Mean ([2]; EFV 600 mg): -0.71 mg/dL
- hs-CRP Changes from baseline at Week 48, Median ([2]; EFV 600 mg): -0.03 mg/dL
- sCD14 Changes from baseline Week 32, Mean ([2]; EFV 600 mg, original values): 480000 pg/mL
- sCD14 Changes from baseline Week 32, Median ([2]; EFV 600 mg, original values): 170000 pg/mL
- sCD14 Changes from baseline at Week 12, Mean ([2]; EFV 600 mg, original values): 90000 pg/mL
- sCD14 Changes from baseline at Week 12, Median ([2]; EFV 600 mg, original values): 1.8e+07 pg/mL
- sCD14 Changes from baseline at Week 24, Mean ([2]; EFV 600 mg, original values): 230000 pg/mL
- sCD14 Changes from baseline at Week 24, Median ([2]; EFV 600 mg, original values): 130000 pg/mL
- sCD14 Changes from baseline at Week 48, Mean ([2]; EFV 600 mg, original values): 640000 pg/mL
- sCD14 Changes from baseline at Week 48, Median ([2]; EFV 600 mg, original values): 460000 pg/mL
- sCD14 over 48 weeks of treatment (linear mixed-model analysis of repeat sCD14 analysis) ([2]; both CVC treatment arms, EFV arm): increase

Structure (SMILES): CCc1ccc(CCOc2ccc(CC3SC(=O)NC3=O)cc2)nc1 (centres unmarked) [PGZ, Pioglitazone, reference compound]
- Cmin on co-administration [3]: remained unchanged
- steady-state Cmax and AUC0-tau on co-administration [3]: modest decrease

Structure (SMILES): CCCCOCCOc1ccc(-c2ccc3c(c2)C=C(C(=O)Nc2ccc([S@@+]([O-])Cc4cncn4CCC)cc2)CCCN3CC(C)C)cc1 [cenicriviroc mesylate, (S)-8-[4-(2-Butoxyethoxy)phenyl]-1-isobutyl-N-(4-{[(1-propyl-1H-imidazol-5-yl)methyl]sulfinyl}phenyl)-1,2,3,4-tetrahydro-1-benzazocine-5-carboxamide monomethanesulfonoate]
- solubility ([4]; 99.5% ethanol): sparingly soluble
- solubility ([4]; acetonitrile, 1-octanol, tetrahydrofuran): slightly soluble
- solubility ([4]; aqueous solution at pH 3): sparingly soluble
- solubility ([4]; aqueous solution from pH 1 to 2): freely soluble
- solubility ([4]; ethyl acetate and diethylether): practically insoluble
- solubility ([4]; glacial acetic acid, methanol, benzyl alcohol, dimethylsulfoxide, N,N-dimethylformamide): freely soluble
- solubility ([4]; pH 4 to 13 and in water): practically insoluble
- solubility ([4]; pyridine and acetic anhydride): soluble
